Source: ChEMBL document CHEMBL1152806, “Discovery of a potent, selective, and orally efficacious pyrimidinooxazinyl bicyclooctaneacetic acid diacylglycerol acyltransferase-1 inhibitor” (J Med Chem, 2009)

Target: T1, Diacylglycerol O-acyltransferase 1 (Homo sapiens, UniProt O75907)
T1 sequence (O75907 whole entry): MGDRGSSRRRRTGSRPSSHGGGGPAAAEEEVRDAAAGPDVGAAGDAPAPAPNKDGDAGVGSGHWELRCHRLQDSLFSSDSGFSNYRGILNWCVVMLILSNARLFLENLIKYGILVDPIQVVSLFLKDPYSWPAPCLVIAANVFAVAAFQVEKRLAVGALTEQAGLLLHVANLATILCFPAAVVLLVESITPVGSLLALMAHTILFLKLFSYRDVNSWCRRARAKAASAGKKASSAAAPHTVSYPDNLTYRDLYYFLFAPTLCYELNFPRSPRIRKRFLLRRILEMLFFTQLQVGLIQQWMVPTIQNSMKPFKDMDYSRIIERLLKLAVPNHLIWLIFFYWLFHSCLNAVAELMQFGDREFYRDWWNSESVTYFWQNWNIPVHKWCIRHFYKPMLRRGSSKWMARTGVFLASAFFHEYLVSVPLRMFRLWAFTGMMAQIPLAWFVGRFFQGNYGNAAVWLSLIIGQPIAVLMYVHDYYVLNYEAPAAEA
Assay: Inhibition of human recombinant DGAT1 expressed in Sf9 cells by liquid scintillography

IC50: 28 nM
Compound: CC1(C)Oc2ncnc(N)c2N=C1c1ccc(C23CCC(C(=O)O)(CC2)CC3)cc1
